Experimental data from patent publication US20240132478A1, “COCRYSTAL” (Syndesi Therapeutics SA, priority 2020, published 2024).
Where two headings read alike, the source gives them in different places.

Tests used:
Format in all cases: physicochemical
[1] = Gravimetric Vapour Sorption (GVS) moisture sorption isotherm; conditions: for GVS reversible water uptake: between 0-90% RH; for Hygroscopicity: in words, by GVS
Protocol: Sorption isotherms were obtained using a SMS DVS Intrinsic moisture sorption analyser, controlled by DVS Intrinsic Control software. The sample temperature was maintained at 25° C. by the instrument controls. The humidity was controlled by mixing streams of dry and wet nitrogen, with a total flow rate of 200 ml/min. The relative humidity was measured by a calibrated Rotronic probe (dynamic range of 1.0-100% RH), located near the sample. The weight change, (mass relaxation) of the sample as a function of % RH was constantly monitored by a microbalance (accuracy ±0.005 mg). Typically, 5-30 mg of sample was placed in a tared mesh stainless steel basket under ambient conditions. The sample was loaded and unloaded at 40% RH and 25° C. (typical room conditions). A moisture sorption isotherm was performed as outlined below (2 scans per complete cycle). The standard isotherm was performed at 25° C. at 10% RH intervals over a 0-90% RH range. Typically, a double cycle (4 scans) was carried out. Data analysis was carried out within Microsoft Excel using the DVS Analysis Suite.
The sample was recovered after completion of the isotherm and re-analysed by XRPD.

[2] = Thermo-Gravimetric Analysis (TGA)
Protocol: TA Instruments Discovery TGA: TGA data were collected on a TA Instruments Discovery TGA, equipped with a 25 position auto-sampler. Typically, 5 10 mg of each sample was loaded onto a pre-tared aluminium DSC pan and heated at 10° C./min from ambient temperature to 350° C. A nitrogen purge at 25 mlmL/min was maintained over the sample. The instrument control software was TRIOS and the data were analysed using Universal Analysis.

[3] = Storage stability at elevated temperature and humidity (XRPD and HPLC purity after storage)
[4] = Differential Scanning Calorimetry (DSC); conditions: for Melting point (onset): * = multiple thermal events; for DSC Endotherm, enthalpy / DSC Endotherm, onset temp: single endotherm; for DSC Endotherm, onset temp: followed by exothermic event
Protocol: TA Instruments Q2000: DSC data were collected on a TA Instruments Q2000 equipped with a 50 position auto sampler. Typically, 0.5 3 mg of each sample, in a pin-holed aluminium pan, was heated at 10° C./min from 25° C. to 235° C. A purge of dry nitrogen at 50 mlmL/min was maintained over the sample. The instrument control software was Advantage for Q Series and Thermal Advantage and the data were analysed using Universal Analysis or TRIOS.
TA Instruments Discovery DSC: DSC data were also collected on a TA Instruments Discovery DSC equipped with a 50 position auto-sampler. Typically, 0.5 3 mg of each sample, in a pin-holed aluminium pan, was heated at 10° C./min from 25° C. to 235° C. A purge of dry nitrogen at 50 mlmL/min was maintained over the sample. The instrument control software was TRIOS and the data were analysed using TRIOS or Universal Analysis.

[5] = Storage stability at elevated temperature and humidity (XRPD and HPLC purity after storage); conditions: for Storage: XRPD pattern: 40° C./75% RH, after 7 days; for Stability at 25° C./97% RH and 40° C./75% RH: XRPD after storage; for Stability to increased temperature and humidity: in words, increased temperature (40° C.) and high humidity; for XRPD after storage at 40° C./75% RH: 7 days
Protocol: Bruker AXS D8 Advance: XRPD diffractograms were collected on a Bruker D8 diffractometer using Cu Kα radiation (40 kV, 40 mA) and a θ-2θ goniometer fitted with a Ge monochromator. The incident beam passes through a 2.0 mm divergence slit followed by a 0.2 mm anti-scatter slit and knife edge. The diffracted beam passes through an 8.0 mm receiving slit with 2.5° Soller slits followed by the Lynxeye Detector. The software used for data collection and analysis was Diffrac Plus XRD Commander and Diffrac Plus EVA respectively. Samples were run under ambient conditions as flat plate specimens using powder as received. The sample was prepared on a polished, zero-background (510) silicon wafer by gently pressing onto the flat surface or packed into a cut cavity. The sample was rotated in its own plane. The details of the data collection method are: • Angular range: 2 to 42° 2θ • Step size: 0.05° 2θ • Collection time: 0.5 s/step (total collection time: 6.40 min)
Purity analysis was performed on an Agilent Ip 100/Infinity 111260 series system equipped with a diode array detector and using OpenLAB software. The full method details are provided below:
The three potential cocrystals were characterised using DSC, 1H NMR, TGA and by evaluating their stability with XRPD after 7 or 8 days of being stored at 40° C./75% RH. All three cocrystals were unchanged by XRPD after storage at 40° C./75% RH and none had significant amounts of solvent present (Table 28). The 4 HBA cocrystal appeared to have a similar melt to the starting material (ca. 85° C.). […] All initially appeared to have a 1:1 stoichiometry. […]

[6] = Variable temperature XRPD (VT-XRPD)
Protocol: Non-ambient conditions: For variable temperature (VT-XRPD) experiments samples were mounted on an Anton Paar DHS 900 hot stage at ambient conditions. The sample was then heated to the appropriate temperature at 10° C./min and subsequently held isothermally for 2 minutes before data collection. Samples were prepared and analysed on a silicon wafer mounted to the hot stage using a heat-conducting paste.

Row | Hygroscopicity (GVS) [1] | XRPD post-GVS [1] | Hygroscopicity [1] | Storage: XRPD pattern ([3]; 25° C./97% RH, after 7 days) | Melting point (onset) [4] | DSC Endotherm, enthalpy [4] | DSC Endotherm, onset temp [4] | Storage: XRPD pattern [5] | Stability at 25° C./97% RH and 40° C./75% RH [5] | Stability to increased temperature and humidity [5] | VT-XRPD temperature at which sample melted [6] | XRPD after storage at 40° C./75% RH [5] | SMILES | GVS reversible water uptake [1] | VT-XRPD pattern on heating [6] | further results
1 | Slightly hygroscopic | Some changes by XRPD post-GVS | only slightly hygroscopic | XRPD pattern unchanged after 7 days | 138.2 °C | 91 J/g | 138.2 °C | XRPD pattern unchanged after 7 days | Stable, | remains stable | melted at ca. 139 °C | – | O=C(O)c1ccc(O)cc1O.O=C(O)c1ccc(O)cc1O.O=C1C[C@H](c2cc(F)c(F)c(F)c2)CN1Cn1ncnc1Cl [2,4-DHBA Pattern 1] | 0.53% w/w reversible water uptake between 0-90% | XRPD pattern remained unchanged until the sample | XRPD post-GVS ([1]; sample re-analysed by XRPD after isotherm): slight changes; TGA mass loss prior to dissociation/degradation [2]: No significant mass loss prior to dissociation/; TGA w/w loss on dissociation/degradation ([2]; followed by continual decomposition): degradation then 43.4% w/w loss followed by continual; Storage: Purity ([3]; 25° C./97% RH, after ca 1 month on storage): Purity: 99.7% (after ca 1 month on storage); Storage: Purity ([3]; 40° C./75% RH, after ca 1 month on storage): Purity: 97.9% (after ca 1 month on storage); XRPD after storage at 40° C./75% RH ([3]; 8 days): 8 days: Unchanged
2 | Slightly hygroscopic | Unchanged by XRPD post-GVS | only slightly hygroscopic | XRPD Pattern unchanged after 7 days | – | 85 J/g | 113.3 °C | XRPD Pattern unchanged after 7 days | – | remains stable | it melted at ca. 113 °C | 7 days: Unchanged | O=C(O)c1cc(O)cc(O)c1.O=C1C[C@H](c2cc(F)c(F)c(F)c2)CN1Cn1ncnc1Cl [3,5-DHBA Pattern 1] | ~0.2% w/w reversible water uptake | XRPD pattern remained unchanged until | TGA onset of dissociation/decomposition [2]: ca. 120 °C; Storage: Purity ([3]; 25° C./97% RH, 7 days): Purity: 99.9%; Storage: Purity ([3]; 40° C./75% RH, 7 days): Purity: 99.7%
3 | Non-hygroscopic | RH, unchanged by XRPD post-GVS | non-hygroscopic | – | 87.7° C.* | – | – | – | Stable, | stable | – | 7 days: Unchanged | O=C(O)c1ccc(O)cc1.O=C1C[C@H](c2cc(F)c(F)c(F)c2)CN1Cn1ncnc1Cl [4-HBA Pattern 1] | ~0.11% w/w reversible water uptake between 0-90% | XRPD pattern changes slightly on heating between 60 °C | TGA w/w loss ([2]; from 114-268° C., followed by continual decomposition): 29.0% w/w loss from 114-268 °C; Storage: Purity ([3]; 25° C./97% RH, 11 days): Purity: 99.9%; Storage: XRPD pattern ([3]; 25° C./97% RH, after 11 days): XRPD pattern unchanged after 11 days; Storage: Purity ([3]; 40° C./75% RH, 11 days): Purity: 99.7%; Storage: XRPD pattern ([3]; 40° C./75% RH, after 11 days): XRPD pattern unchanged after 11 days; DSC 1st Endotherm, enthalpy [4]: 8 J/g; DSC 1st Endotherm, onset temp [4]: 70.6 °C; DSC 2nd Endotherm, enthalpy [4]: 56 J/g; DSC 2nd Endotherm, onset temp [4]: 87.7 °C; DSC Broad exotherm, enthalpy [4]: 19 J/g; DSC Broad exotherm, onset temp [4]: 110 °C
4 | – | – | – | – | 113.3 °C | – | – | – | Stable, | – | – | – | O=C(O)c1cc(O)cc(O)c1.O=C1C[C@@H](c2cc(F)c(F)c(F)c2)CN1Cn1ncnc1Cl [ARP-1725-71-02C] | – | – | –
